Test results taken from paper PMC9120017, “Inhibition mechanism of the chloride channel TMEM16A by the pore blocker 1PBC” (Nature Communications, 2022).
Where two headings read alike, the source gives them in different places.

Target: T1, mouse TMEM16A mutant Q649A (Mus musculus, UniProt Q8BHY3, Q649A)
T1 construct: expressed in transfected cells; host or cells: HEK293T
T1 sequence (Q8BHY3 1-960 Q649A): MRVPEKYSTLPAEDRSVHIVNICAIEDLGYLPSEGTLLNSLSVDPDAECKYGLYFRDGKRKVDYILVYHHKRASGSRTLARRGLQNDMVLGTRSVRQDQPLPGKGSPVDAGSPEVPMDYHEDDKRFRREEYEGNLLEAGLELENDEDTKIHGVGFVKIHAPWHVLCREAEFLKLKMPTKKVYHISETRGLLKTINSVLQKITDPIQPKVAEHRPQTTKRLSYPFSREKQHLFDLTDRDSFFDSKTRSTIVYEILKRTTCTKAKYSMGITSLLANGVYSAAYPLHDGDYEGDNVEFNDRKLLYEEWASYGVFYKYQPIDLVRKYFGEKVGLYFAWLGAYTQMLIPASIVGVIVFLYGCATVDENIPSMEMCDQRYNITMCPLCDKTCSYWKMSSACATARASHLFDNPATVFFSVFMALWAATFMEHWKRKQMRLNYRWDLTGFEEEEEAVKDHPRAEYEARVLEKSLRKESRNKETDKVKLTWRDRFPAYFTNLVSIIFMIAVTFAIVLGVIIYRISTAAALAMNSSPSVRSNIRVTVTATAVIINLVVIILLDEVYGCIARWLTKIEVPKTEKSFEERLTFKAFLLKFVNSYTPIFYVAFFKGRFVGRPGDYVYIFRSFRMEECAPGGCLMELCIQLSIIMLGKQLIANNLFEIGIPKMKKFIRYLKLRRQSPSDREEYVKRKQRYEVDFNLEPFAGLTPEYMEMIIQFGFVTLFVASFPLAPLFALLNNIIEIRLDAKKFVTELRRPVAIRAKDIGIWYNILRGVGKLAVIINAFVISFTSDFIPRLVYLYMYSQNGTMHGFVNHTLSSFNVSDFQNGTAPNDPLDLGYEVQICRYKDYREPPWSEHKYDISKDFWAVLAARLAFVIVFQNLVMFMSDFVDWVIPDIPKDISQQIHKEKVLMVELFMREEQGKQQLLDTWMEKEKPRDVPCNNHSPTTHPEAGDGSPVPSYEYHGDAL
Assay: Inside-out patch recording of 1PBC block, constitutively active mutant Q649A
Type: cell-based
Conditions: for remaining activity at 3 µM: 3 µM 1PBC; for remaining activity at 10 µM: 10 µM 1PBC; for remaining activity at 30 µM: 30 µM 1PBC
Protocol: HEK293T cells (ATCC CRL-1573) were maintained in Dulbecco’s modified Eagle’s medium (DMEM; Sigma-Aldrich) supplemented with 10 U ml^−1 penicillin, 0.1 mg ml^−1 streptomycin (Sigma-Aldrich), 2 mM L-glutamine (Sigma-Aldrich), and 10% FBS (Sigma-Aldrich) in a humidified atmosphere containing 5% CO2 at 37 °C. HEK293S GnTI^− cells (ATCC CRL-3022) were maintained in HyClone HyCell TransFx-H medium (GE Healthcare) supplemented with 10 U ml^−1 penicillin, 0.1 mg ml^−1 streptomycin, 4 mM L-glutamine, 0.15% poloxamer 188 (Sigma-Aldrich), and 1% FBS in an atmosphere containing 5% CO2 at 185 rpm at 37 °C. The ac splice variant of mouse TMEM16A (UniProt ID: Q8BHY3), mouse TMEM16B (UniProt ID: Q8CFW1), or mouse TMEM16F (UniProt ID: Q6P9J9) bearing a 3C cleavage site, a Venus YFP, a Myc tag, and a Streptavidin-binding peptide (SBP) downstream of the open reading frame in a modified pcDNA3.1 vector (Invitrogen) were used as described previously[21],[31]. Mutations were introduced using a modified QuikChange method[58] and were verified by sequencing.
HEK293T cells were transfected with 3–4 μg DNA per 6 cm Petri dish using the calcium phosphate co-precipitation method and were used within 24–96 h after transfection. Recordings were performed on inside-out patches excised from HEK293T cells expressing the construct of interest. Patch pipettes were pulled from borosilicate glass capillaries (O.D. 1.5 mm, I.D. 0.86 mm, Sutter Instrument) and were fire-polished with a microforge (Narishige) before use. Pipette resistance was typically 3–8 MΩ when filled with the recording solutions detailed below. Seal resistance was typically 4 GΩ or higher. Voltage-clamp recordings were made using Axopatch 200B, Digidata 1550, and Clampex 10.7 (Molecular Devices). Analog signals were filtered with the in-built 4-pole Bessel filter at 10 kHz and were digitized at 20 kHz. Solution exchange was achieved using a gravity-fed system through a theta glass pipette mounted on an ultra-fast piezo-driven stepper (Siskiyou). […] All recordings were performed at 20 °C.
A symmetrical ionic condition was used throughout. Stock solution with Ca^2+-EGTA contained 150 mM NaCl, 5.99 mM Ca(OH)2, 5 mM EGTA, and 10 mM HEPES at pH 7.40. Stock solution with EGTA contained 150 mM NaCl, 5 mM EGTA, and 10 mM HEPES at pH 7.40. Free Ca^2+ concentrations were adjusted by mixing the stock solutions at the required ratios calculated using the WEBMAXC program (http://web.stanford.edu/~cpatton/webmaxcS.htm). Patch pipettes were filled with the stock solution with Ca^2+-EGTA, which has a free Ca^2+ concentration of 1 mM. 1PBC (ChemBridge) stock was reconstituted in anhydrous DMSO (Sigma-Aldrich) at 100 mM and stored at −20 °C. Working solutions with 1PBC were prepared by serial dilution. Unless otherwise stated, experiments were performed at a saturating Ca^2+ concentration as shown in Supplementary Table 1 and the primary data were corrected for current rundown as described previously[21],[25].
Concentration-response relations, obtained from the ratio of the I-V plots before and after the application of the blocker, were fitted to the Hill equation,1 I/Imax=1/1+IC50/[blocker]^h where I/Imax is the normalized current responses, IC50 defines the concentration at which inhibition is at its half-maximum, and h is the Hill coefficient.

[1] = 0 mV, 2 µM Ca2+, read-out: I/Imax
[2] = 0 mV, zero Ca2+, read-out: I/Imax

SMILES: N#Cc1c(C(F)(F)F)cc(O)n2c1nc1ccccc12 [1PBC]
- I/Imax_+80mV (0Ca, 3 μM 1PBC): 0.8995
- I/Imax_-80mV (0Ca, 3 μM 1PBC): 0.9942
- I/Imax_+80mV (0Ca, 10 μM 1PBC): 0.7384
- I/Imax_-80mV (0Ca, 10 μM 1PBC): 0.9446
- I/Imax_+80mV (0Ca, 30 μM 1PBC): 0.483
- I/Imax_-80mV (0Ca, 30 μM 1PBC): 0.815
- I/Imax_+80mV (0Ca, 100 μM 1PBC): 0.2577
- I/Imax_-80mV (0Ca, 100 μM 1PBC): 0.578
- remaining activity at 1 µM (1 µM 1PBC, 0 mV, 2 µM Ca2+, read-out: I/Imax): 80%
- remaining activity at 3 µM [1]: 57.9%
- remaining activity at 3 µM [2]: 92.9%
- remaining activity at 10 µM [1]: 31.4%
- remaining activity at 10 µM [2]: 84.7%
- remaining activity at 30 µM [1]: 13.7%
- remaining activity at 30 µM [2]: 63.9%
- remaining activity at 100 µM (100 µM 1PBC, 0 mV, zero Ca2+, read-out: I/Imax): 39.9%
- I/Imax_+80mV (Ca, 1 μM 1PBC): 0.7635
- I/Imax_-80mV (Ca, 1 μM 1PBC): 0.9086
- I/Imax_+80mV (Ca, 3 μM 1PBC): 0.5067
- I/Imax_-80mV (Ca, 3 μM 1PBC): 0.7508
- I/Imax_+80mV (Ca, 10 μM 1PBC): 0.2578
- I/Imax_-80mV (Ca, 10 μM 1PBC): 0.4875
- I/Imax_+80mV (Ca, 30 μM 1PBC): 0.09866
- I/Imax_-80mV (Ca, 30 μM 1PBC): 0.2347
- Decrease in potency of block, Ca2+-free form vs Ca2+-bound state (zero vs 2 µM Ca2+): about ten-fold
